For one experiment, the target named is T1, PI3Kalpha (Homo sapiens, UniProt P42336).
T1 construct: purchased Upstate; Millipore 14-602
In words: HTRF PI3K biochemical assay, alpha isoform (selectivity versus delta). The settings on record: relative ratio PI3K-alpha IC50 value / PI3K-delta IC50 value. The essentials: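 Recombinant PI3Kα (0.5 nM) pre-incubated 15 min with compound, then reacted 1 h at room temperature with 5 μM PIP2 and 100 μM ATP. After EDTA stop, PIP3 measured by HTRF displacement of biotin-PIP3 from GST-GRP1 PH domain (665/620 nm). 10-point dose response; IC50 corrected using a PIP3 standard curve.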

Another experiment addresses T2, PI3Kdelta (Homo sapiens, UniProt O00329).
T2 construct: purchased Upstate; Millipore 14-604
Nature of the experiment: HTRF PI3K biochemical assay, delta isoform. The settings on record: 0.3 nM enzyme, 100 uM ATP, 5 uM PIP2, form screened (Neutral or TFA salt) given per compound. The method in brief:
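PI3Kδ at 0.3 nM with 100 uM ATP and 5 uM PIP2, 10-point 3-fold dilutions, 15 min enzyme–compound pre-incubation, then 1 h reaction at room temperature. PIP3 formation detected by HTRF displacement of biotin-PIP3 from GST-GRP1-PH (665/620 nm ratio). IC50 corrected using a PIP3 standard curve.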

pIC50: −log10 of the molar value.

T2 sequence (O00329 whole entry): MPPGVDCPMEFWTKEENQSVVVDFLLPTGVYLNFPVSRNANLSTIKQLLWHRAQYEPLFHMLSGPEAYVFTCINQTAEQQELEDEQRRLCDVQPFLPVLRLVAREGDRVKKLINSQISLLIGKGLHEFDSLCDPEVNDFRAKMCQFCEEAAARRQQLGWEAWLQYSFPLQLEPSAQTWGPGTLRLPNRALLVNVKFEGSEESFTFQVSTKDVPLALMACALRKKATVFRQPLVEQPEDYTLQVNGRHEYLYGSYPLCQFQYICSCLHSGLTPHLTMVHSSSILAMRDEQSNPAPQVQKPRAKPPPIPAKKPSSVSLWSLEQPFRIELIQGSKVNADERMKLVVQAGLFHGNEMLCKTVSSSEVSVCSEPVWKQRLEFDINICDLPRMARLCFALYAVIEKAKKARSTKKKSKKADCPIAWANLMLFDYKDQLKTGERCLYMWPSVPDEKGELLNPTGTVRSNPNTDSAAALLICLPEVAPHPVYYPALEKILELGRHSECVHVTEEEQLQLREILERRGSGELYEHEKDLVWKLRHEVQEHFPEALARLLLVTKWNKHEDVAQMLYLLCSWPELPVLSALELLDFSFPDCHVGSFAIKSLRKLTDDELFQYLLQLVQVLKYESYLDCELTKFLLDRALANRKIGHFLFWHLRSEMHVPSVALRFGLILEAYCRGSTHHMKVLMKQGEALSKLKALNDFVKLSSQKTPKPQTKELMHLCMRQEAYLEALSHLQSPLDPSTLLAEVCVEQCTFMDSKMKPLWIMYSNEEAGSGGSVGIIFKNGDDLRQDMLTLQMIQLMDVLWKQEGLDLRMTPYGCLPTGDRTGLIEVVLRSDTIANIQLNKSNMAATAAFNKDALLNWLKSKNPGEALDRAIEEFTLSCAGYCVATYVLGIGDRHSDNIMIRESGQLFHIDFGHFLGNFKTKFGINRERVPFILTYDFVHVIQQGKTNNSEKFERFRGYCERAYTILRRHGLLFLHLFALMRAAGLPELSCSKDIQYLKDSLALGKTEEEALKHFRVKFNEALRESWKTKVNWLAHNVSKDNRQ
T2 sequence (P27986 whole entry partner): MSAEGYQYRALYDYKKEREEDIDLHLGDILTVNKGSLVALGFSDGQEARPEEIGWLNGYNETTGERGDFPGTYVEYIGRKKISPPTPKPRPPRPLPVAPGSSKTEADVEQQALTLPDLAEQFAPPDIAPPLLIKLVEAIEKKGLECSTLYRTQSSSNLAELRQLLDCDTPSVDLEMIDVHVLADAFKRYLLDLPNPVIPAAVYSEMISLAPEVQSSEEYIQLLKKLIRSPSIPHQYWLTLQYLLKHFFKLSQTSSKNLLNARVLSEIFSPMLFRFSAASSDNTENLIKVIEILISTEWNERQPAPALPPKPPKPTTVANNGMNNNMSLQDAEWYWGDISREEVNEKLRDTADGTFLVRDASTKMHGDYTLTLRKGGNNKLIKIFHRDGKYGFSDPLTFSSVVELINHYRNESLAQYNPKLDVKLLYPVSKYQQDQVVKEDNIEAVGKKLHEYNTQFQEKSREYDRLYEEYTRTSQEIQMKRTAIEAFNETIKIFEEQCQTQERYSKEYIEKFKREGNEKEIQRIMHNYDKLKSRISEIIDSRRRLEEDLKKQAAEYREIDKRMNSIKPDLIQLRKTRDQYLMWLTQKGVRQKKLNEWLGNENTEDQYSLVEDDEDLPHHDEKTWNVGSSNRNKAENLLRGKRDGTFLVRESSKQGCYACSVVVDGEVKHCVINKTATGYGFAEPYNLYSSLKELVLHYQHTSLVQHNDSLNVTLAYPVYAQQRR
T1 sequence (P42336 whole entry): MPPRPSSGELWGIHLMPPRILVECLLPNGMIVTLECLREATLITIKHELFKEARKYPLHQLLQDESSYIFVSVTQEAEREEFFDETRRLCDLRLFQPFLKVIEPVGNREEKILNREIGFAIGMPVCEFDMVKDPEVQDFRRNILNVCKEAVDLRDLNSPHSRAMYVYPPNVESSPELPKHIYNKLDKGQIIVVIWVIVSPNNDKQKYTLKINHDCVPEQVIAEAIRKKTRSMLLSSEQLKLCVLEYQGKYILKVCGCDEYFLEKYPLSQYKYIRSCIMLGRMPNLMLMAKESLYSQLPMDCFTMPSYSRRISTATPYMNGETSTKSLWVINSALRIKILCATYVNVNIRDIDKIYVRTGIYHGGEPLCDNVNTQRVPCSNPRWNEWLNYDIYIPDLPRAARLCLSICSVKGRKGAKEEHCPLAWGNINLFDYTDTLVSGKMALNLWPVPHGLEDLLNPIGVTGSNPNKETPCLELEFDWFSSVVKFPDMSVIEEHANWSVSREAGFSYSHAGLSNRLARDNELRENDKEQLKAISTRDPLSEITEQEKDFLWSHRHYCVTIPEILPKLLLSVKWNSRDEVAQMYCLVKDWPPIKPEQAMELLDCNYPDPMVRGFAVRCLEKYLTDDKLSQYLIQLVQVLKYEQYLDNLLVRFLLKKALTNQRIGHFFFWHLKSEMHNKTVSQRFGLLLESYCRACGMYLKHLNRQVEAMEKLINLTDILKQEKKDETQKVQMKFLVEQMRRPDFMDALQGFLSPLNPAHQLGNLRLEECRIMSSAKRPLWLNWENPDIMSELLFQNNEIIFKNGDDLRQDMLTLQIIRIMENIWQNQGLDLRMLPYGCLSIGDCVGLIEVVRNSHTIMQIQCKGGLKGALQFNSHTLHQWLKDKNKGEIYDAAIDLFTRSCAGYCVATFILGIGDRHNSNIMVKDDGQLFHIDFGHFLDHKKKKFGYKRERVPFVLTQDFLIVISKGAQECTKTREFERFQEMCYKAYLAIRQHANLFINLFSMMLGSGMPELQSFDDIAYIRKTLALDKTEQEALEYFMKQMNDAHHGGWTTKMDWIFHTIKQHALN
T1 sequence (P27986 whole entry partner): as the sequence (P27986 whole entry partner) above

In general, pIC50 refers to −log10 of the IC50, conventionally taken in molar units. For the molecule `CCn1c(-c2cnc(C)nc2)nc2c(OC3CCc4nnc(C5CC5)n4C3)ncnc21` (single isomer, unassigned) [Compound 1-32, (S or R)-6-{[3-cyclopropyl-5,6,7,8-tetrahydro[1,2,4]triazolo[4,3-a]pyridin-6-yl]oxy}-9-ethyl-8-(2-methylpyrimidin-5-yl)-9H-purine], at PI3Kalpha, the “Selectivity versus PI3Kalpha” value is over 10. Further, on PI3Kdelta, the pIC50 is 8.36.

Turning to `CCn1c(-c2cnc(C)nc2)nc2c(OC3CCc4nnc(C(C)C)n4C3)ncnc21` (single isomer, unassigned) [Compound 1-33, (S or R)-9-ethyl-6-{[3-(1-methylethyl)-5,6,7,8-tetrahydro[1,2,4]triazolo[4,3-a]pyridin-6-yl]oxy}-8-(2-methylpyrimidin-5-yl)-9H-purine], the “Selectivity versus PI3Kalpha” value on PI3Kalpha is over 10. Further, the pIC50 at PI3Kdelta is 7.46.

Consider `CCn1c(-c2cnc(C)nc2)nc2c(OC3CCc4nnc(C(C)C)n4C3)ncnc21` (single isomer, unassigned) [Compound 1-34, (S or R)-9-ethyl-6-{[3-(1-methylethyl)-5,6,7,8-tetrahydro[1,2,4]triazolo[4,3-a]pyridin-6-yl]oxy}-8-(2-methylpyrimidin-5-yl)-9H-purine], for which the “Selectivity versus PI3Kalpha” value at PI3Kalpha is listed as over 10. The pIC50 at PI3Kdelta is 8.39.

For `CCn1c(-c2cnc(C)nc2)nc2c(OC3CCc4nnc(C5CCC5)n4C3)ncnc21` (single isomer, unassigned) [Compound 1-35, (S or R)-6-{[3-cyclobutyl-5,6,7,8-tetrahydro[1,2,4]triazolo[4,3-a]pyridin-6-yl]oxy}-9-ethyl-8-(2-methylpyrimidin-5-yl)-9H-purine], at PI3Kalpha, the “Selectivity versus PI3Kalpha” value is recorded as over 10. For the same molecule, the negative logarithm of the IC50 (pIC50) on PI3Kdelta was 7.72.

Consider `CCn1c(-c2cnc(C)nc2)nc2c(OC3CCc4nnc(C5CCC5)n4C3)ncnc21` (single isomer, unassigned) [Compound 1-36, (S or R)-6-{[3-cyclobutyl-5,6,7,8-tetrahydro[1,2,4]triazolo[4,3-a]pyridin-6-yl]oxy}-9-ethyl-8-(2-methylpyrimidin-5-yl)-9H-purine], for which the “Selectivity versus PI3Kalpha” value at PI3Kalpha is recorded as over 10. The pIC50 at PI3Kdelta was 8.96.

In the case of `CCn1c(-c2cnc(C)nc2)nc2c(NC3CCc4[nH]nc(C5CC5)c4C3)ncnc21` (single isomer, unassigned) [Compound 2-2, (S or R)-N-[3-cyclopropyl-4,5,6,7-tetrahydro-1H-indazol-5-yl]-9-ethyl-8-(2-methylpyrimidin-5-yl)-9H-purin-6-amine], the “Selectivity versus PI3Kalpha” value at PI3Kalpha is given as over 10. In addition, the pIC50 at PI3Kdelta was 8.54.

As for `CCn1c(-c2cnc(C)nc2)nc2c(NC3CCc4[nH]nc(C(C)C)c4C3)ncnc21` (single isomer, unassigned) [Compound 2-4, (S or R)-9-ethyl-N-[3-(1-methylethyl)-4,5,6,7-tetrahydro-1H-indazol-5-yl]-8-(2-methylpyrimidin-5-yl)-9H-purin-6-amine], the “Selectivity versus PI3Kalpha” value on PI3Kalpha is listed as over 10. Besides, at PI3Kdelta, the pIC50 was 8.74.

Take `CCn1c(-c2cnc(C)nc2)nc2c(NC3(C)CCc4[nH]nc(C(C)C)c4C3)ncnc21` (single isomer, unassigned) [Compound 2-5, (S or R)-9-ethyl-N-[5-methyl-3-(1-methylethyl)-4,5,6,7-tetrahydro-1H-indazol-5-yl]-8-(2-methylpyrimidin-5-yl)-9H-purin-6-amine]: on PI3Kalpha, the “Selectivity versus PI3Kalpha” value was over 10. The pIC50 on PI3Kdelta was 8.39.

`CCn1c(-c2cnc(C)nc2)nc2c(NC3(C)CCc4[nH]nc(C(C)C)c4C3)ncnc21` (single isomer, unassigned) [Compound 2-6, (S or R)-9-ethyl-N-[5-methyl-3-(1-methylethyl)-4,5,6,7-tetrahydro-1H-indazol-5-yl]-8-(2-methylpyrimidin-5-yl)-9H-purin-6-amine]: the “Selectivity versus PI3Kalpha” value at PI3Kalpha is recorded as over 10. In addition, at PI3Kdelta, the negative logarithm of the IC50 (pIC50) is 7.68.

These data come from US10100064B2, “Purine inhibitors of human phosphatidylinositol 3-kinase delta” (Merck Sharp & Dohme Corp., priority 2014, dated 2018).
